# According to US20020165216A1, “Cobalt-porphyrin complexes and use thereof as an anti-obesity agent” (MitoKor, priority 2000, published 2002):
# What was measured:
# Weight loss assay = type: in vivo, Male Sprague Dawley rats; settings: 12 mM in vehicle, 400 μl per 100 grams body weight, subcutaneous, nuchal area, 8 days
# Description: Male Sprague Dawley rats (approximately 200 g) were purchased from Charles River Canada, Inc. and were shipped to the Animal Care Facility at the University of Vermont. Upon arrival they were housed in separate cages with corncob bedding and ad lib access to tap water and purina rat chow. The animal facility is maintained at a temperature of 71° F. +/− 1° F. with a 12-hour light/dark cycle, lights on at 6:00 am and off at 6:00 pm. Two days later (Day-3) all rats were shaved in the nuchal area and baseline color photographs of the nuchal area were taken (light halothane anesthesia was utilized to facilitate the shaving). Three days later (Day 0) experimental compounds were made up at 12 mM concentrations in vehicle (i.e., saline:PEG400:EtOH (5:4:1), pH 7.4). Animals were injected subcutaneously in the nuchal area with the various stock solutions at a dose of 400 μl per 100 grams body weight. Typical injection volumes, therefore, range from 1 to 1.5 ml per animal. Animals were injected using a modified Z-track technique to try and minimize outflow of injected compounds due to the high volume utilized. Each animal was weighed prior to injection and all injections were accomplished in an approximately two-hour period. No anesthesia was utilized for injections.
# Animals subsequently underwent daily weighing with a Mettler 6 second integrating balance and had ad lib access to tap water and purina rat chow. At various intervals after injections, the nuchal area of rats was again photographed. […] The scale used was 0 for no lesions, 5 for the worst lesions with breakdown of the skin and open flow of exudates. Grades in-between were estimated by the operator based on the size and severity of the lesion. […] After 8 days, final photographs were taken and all animals were euthanized, marking the end of the experiment.
# Means of body weights for each group were calculated and plotted over time (FIG. 9A), as were numerical means of the lesion severity index (FIG. 9B). In FIGS. 9A and 9B, C=noninjected control, V=vehicle injected control, A=Co-MP, E=Cpd. No. (1-6) and F=Cpd. No. (4-4). […] Cpd.
# [1] = tested on: SH-SY5Y neuroblastoma cells; assay: Cellular assay for generation of reactive oxygen species (ROS); type: cell-based
# Description: All cell culture reagents were incubated in a water bath at 37° C. for approximately 30 minutes. Existing media from a near confluent tissue culture flask containing SH-SY5Y neuroblastoma cells was aspirated using a flame sterilized glass transfer pipette attached to a trapped vacuum apparatus. Calcium free PBS buffer was pipetted into the tissue culture flask (2 ml for a 75 cm2 flask, 3 ml for a 175 cm^2 flask). The flask was tipped slightly to ensure that the buffer covers the cell culture and then the buffer was removed by aspiration. Trypsin media was pipetted into the tissue culture flask (2 ml for a 75 cm^2 flask, 3 ml for a 175 cm^2 flask) and evenly spread to ensure that the trypsin covered the cell culture. The cell culture was incubated with trypsin media for 4-6 minutes at room temperature. After cells were released from the flask, the flask was tilted to one corner. Using the existing media within the flask, the aggregated cells were collected towards one corner and repeatedly pipetted to obtain a single cell suspension. The cell suspension was transferred with a pipette into a 15 ml conical shaped centrifuge tube then cell culture media was added to the suspension up to a total volume of 14 ml. Ten μl aliquots were withdrawn and the cells were counted using a hemocytometer. The suspension was centrifuged at 200×g for 10 minutes, the supernatant was aspirated off, and the cell pellet was resuspended at 3.75×10^5 cells/ml in cell culture medium. Two hundred μl of cell suspension were aliquoted per well in the 96 well dish to obtain a final cell number of 75,000 cells per well. The plates were incubated overnight at 37° C. and 5% CO2 in a humidified cell incubator.
# The medium was carefully removed from the wells by aspiration with an 18 g needle. The wells were gently rinsed once with 200 μl of warm Hanks balanced saline solution (HBSS, Gibco-BRL). […]
# Stock solutions of test compound, such as Co-PP, Co-MP, or a Co-P of this invention, and of an H2O2 scavenger such as ebselen, were typically prepared in dimethylformamide or dimethylsulfoxide and diluted further into working concentrations using HBSS. […] The plate was read immediately in Cytofluor model 2350 system (Millipore; excitation wavelength: 485 nm; emission wavelength: 530 nm) for a 0 min timepoint reading. The cells were incubated for 30 minutes at room temperature with test compound following which a 30 min reading was taken. The change in RMF over the 30 minutes period was calculated for each well. […] The plate was then read in the Cytofluor (excitation wavelength: 360 nm; emission wavelength: 460 nm) and the Hoechst fluorescence values were used to normalize the DCFC-DA RMF data.
# [2] = Oxygen consumption catalyzed by Co-P in the presence of ascorbate/TMPD (Clark oxygen electrode); settings: 2 mM ascorbate, 40 μM TMPD; for O2 consumption / redox cycling (in words): cell free ascorbate/TMPD system; for Relative Rate (oxygen consumption), effect of ligand, R5, A and n moiety: Table 4; for Relative Rate (oxygen consumption), effect of ligand, R5 and A moiety: Table 3
# Description: (Co-MP). Such activity can be readily determined by, for example, the assay disclosed in Example 16. In that assay, redox activity is measured by oxygen consumption catalyzed by a Co-P test compound in the presence of ascorbate and TMPD.
# Ten mM stock solutions of a Co-P of this invention (i.e., test compound) were prepared using ethanol as solvent. KCl media consists of 125 mM KCl, 2 mM K2HPO4, 20 mM HEPES, pH 7.0. Oxygen consumption measurements were carried out using a Clark type oxygen electrode (Rank Brothers Ltd., Cambridge, UK) and assay solutions were magnetically stirred during the course of the experiments. To 500 μl of assay solution (KCl media supplemented with 2 mM sodium ascorbate and 40 μM […] (TMPD)) is added 2 μl of a stock solution of test compound (40 μM final concentration) and the oxygen consumption rate is followed for 2-4 min. Subsequently, a 5 μl aliquot of a freshly made catalase solution (100 mg/ml solution in KCl media) is added to determine if H2O2 is generated via redox cycling of the test compound.
# Initial rates are calculated from oxygen consumption slopes and rate of a solvent control is subtracted. […] An aliquot of a 10 mM stock solution of Co-MP (final concentration of 40 μM) was added to assay buffer containing 2 mM of ascorbate and 40 μM of TMPD. […] Addition of catalase results in conversion of H2O2 present in the assay solution to O2 and H2O.
# Stock solutions of the test compound were at 10 mM. Aliquots of the stock solutions were added to 500 μl of assay buffer containing 2 mM of ascorbate and 40 μM of TMPD.
# Representative Co-P compounds of this invention were prepared by the procedures disclosed above, and assayed by the procedure of Example 16 to measure oxygen consumption catalyzed by the test compound in the presence of ascorbate/TMPD. […] The above procedure was then repeated for other representative Co-P compounds of this invention, but utilizing different ligands and/or R groups.
# [3] = 40 μM test compound, normalized to chloride salt of Co-MP = 1
Compound,"Relative Rate (oxygen consumption), effect of ligand, R5, A and n moiety [2, 3]","Relative Rate (oxygen consumption), effect of ligand, R5 and A moiety [2, 3]",other results
"CCC1=C(C)c2cc3[n-]c(cc4nc(cc5[n-]c(cc1n2)c(C)c5CCC(=O)NC(C)C)C(CCC(=O)NC(C)C)=C4C)c(C)c3CC.NCC(=O)O.NCC(=O)[O-].[Co+3] [(4-4), Cobalt (III) mesoporphvrin IX bisglycinate, di—(N-isopropyl)amide]",,,body weight response (Weight loss assay): favorable body weight responses
"O=c1c2ccccc2[se]n1-c1ccccc1 [ebelsen, ebselen]",,,scavenging of reactive oxygen species induced by Co-PP and Co-MP [1]: scavanges the reactive oxygen species
c1c[nH]cn1 [imidazole],,,O2 consumption / redox cycling (in words) [2]: blocks generation of reactive oxygen species
Cobalt (III) Mesioirogyrin IX [(11-1)],0.0005,,
Cobalt (III) Mesoporphyrin IX Diacetate [(7-1)],0.07,,
Cobalt (III) Mesoporphyrin IX Dibenzyl Ester [(8-1)],0.045,,
Cobalt (III) Mesoporphyrin IX Dimethyl Ester [(5-1)],,,"Relative Rate (oxygen consumption), effect of ligand and R5 moiety ([2]; Table 2, 40 μM test compound, normalized to chloride salt of Co-MP = 1): 0.05-0.07"
Cobalt (III) Mesoporphyrin IX Diol [(6-1)],0.56,,
Cobalt (III) Mesoporphyrin IX Dithiobenzyl Ether [(10-1)],0.021,,
Cobalt (III) Mesoporphyrin IX bisglycinate monosodium salt dibutyl ester [(1-2)],,(not detected),
Cobalt (III) Mesoporphyrin IX bisglycinate monosodium salt diisopropyl ester [(1-6)],,(not detected),body weight response (Weight loss assay): favorable body weight responses
"Cobalt (III) Mesoporphyrin IX bisglycinate monosodium salt, diethyl ester [(1-5)]",,0.08 ± 0.01,
"Cobalt (III) Mesoporphyrin IX bisglycinate monosodium salt, diisoamyl ester [(1-4)]",,(not detected),
"Cobalt (III) Mesoporphyrin IX bisglycinate monosodium salt, diisobutyl ester [(1-3)]",,(not detected),
"Cobalt (III) Mesoporphyrin IX bisglycinate monosodium salt, dimethyl ester [(1-1)]",,0.21 ± 0.04,
"Cobalt (III) mesoporphyrin IX bisimidazole, di(4-methoxybenzyl) amide [(4-2)]",,(not detected),generation of reactive oxygen species (DCFC-DA fluorescence) ([1]; 30 minutes with test compound): does not trigger generation of reactive oxygen species; O2 consumption / redox cycling (in words) [2]: does not result in any O2 consumption
